Patent US4785090A, “Cephalosporin derivatives” (Meiji Seika Kaisha, Ltd., priority 1984, dated 1988)
Values after ≈ are worked out from the molar mass of the structure shown. Where a name gives a salt, the structure may show the parent alone. Read-outs that look alike come from different tables or passages of the source.

Columns and labels:
[1] = system: Serratia marcescens No. 1; assay: Minimum Growth Inhibitory Concentration (MIC), Serratia marcescens No. 1; format: cell-based; details: Table 2, bacterium 11: Serratia marcescens No. 1
From the text: (§1) Minimum Growth Inhibitory Concentration (MIC) mcg/ml
11. Serratia marcescens No. 1

Eshcerichia coli GN 206 = assay: Minimum Growth Inhibitory Concentration (MIC), Escherichia coli GN 206; format: cell-based
From the text: as §1
4. Eshcerichia coli GN 206

Proteus rettgeri GN624 = assay: Minimum Growth Inhibitory Concentration (MIC), Proteus rettgeri GN624; format: cell-based; details: Providencia rettgeri
From the text: as §1
9. Proteus rettgeri GN624

[2] = system: Salmonella typhimurium LT2; assay: Minimum Growth Inhibitory Concentration (MIC), Salmonella typhimurium LT2; format: cell-based; details: Salmonella enterica, read-out: Minimum Growth Inhibitory Concentration (MIC)
From the text: as §1
7. Salmonella typhimurium LT2

Proteus mirabilis GN 79 = assay: Minimum Growth Inhibitory Concentration (MIC), Proteus mirabilis GN 79; format: cell-based
From the text: as §1
6. Proteus mirabilis GN 79

[3] = system: Klebsiella pneumoniae PCI 602; assay: Minimum Growth Inhibitory Concentration (MIC), Klebsiella pneumoniae PCI 602; format: cell-based
From the text: as §1
5. Klebsiella pneumoniae PCI 602

[4] = system: Staphylococcus aureus 209PJC1; assay: Minimum Growth Inhibitory Concentration (MIC), Staphylococcus aureus 209PJC1; format: cell-based
From the text: as §1
1. Staphylococcus aureus 209PJC1
as §1
2. Staphylococcus aureus 209 PJC1

Proteus vulgaris GN 76 = assay: Minimum Growth Inhibitory Concentration (MIC), Proteus vulgaris GN 76; format: cell-based
From the text: as §1
10. Proteus vulgaris GN 76
as §1
8. Proteus vulgaris GN 76

[5] = system: Staphylococcus aureus Smith; assay: Minimum Growth Inhibitory Concentration (MIC), Staphylococcus aureus Smith; format: cell-based; details: read-out: Minimum Growth Inhibitory Concentration (MIC)
From the text: as §1
1. Staphylococcus aureus Smith

[6] = system: Escherichia coli NIHJ JC2; assay: Minimum Growth Inhibitory Concentration (MIC), Escherichia coli NIHJ JC2; format: cell-based
From the text: as §1
3. Escherichia coli NIHJ JC2

[7] = system: Serratia marcescens No. 2; assay: Minimum Growth Inhibitory Concentration (MIC), Serratia marcescens No. 2; format: cell-based
From the text: as §1
10. Serratia marcescens No. 2

[8] = Serum concentration in mice after subcutaneous administration; format: in vivo; details: mouse, sc, subcutaneous 25 mg/kg
Experimental: The experiment was conducted by using 3 mice (average body weight 20 g) in each group, subcutaneously administering 25 mg/kg of the sample, taking blood samples at predetermined intervals, separating the serum and measuring the sample concentration by an antibacterial activity test using Escherichia coli as a testing bactera.

[9] = GN206, Table 2, bacterium 4: Eshcerichia coli GN 206, read-out: Minimum Growth Inhibitory Concentration (MIC)
[10] = Table 2, bacterium 9: Proteus rettgeri GN624, read-out: Minimum Growth Inhibitory Concentration (MIC)
[11] = Table 2, bacterium 7: Salmonella typhimurium LT2
[12] = GN79, Table 2, bacterium 6: Proteus mirabilis GN 79, read-out: Minimum Growth Inhibitory Concentration (MIC)
[13] = PCI602, Table 2, bacterium 5: Klebsiella pneumoniae PCI 602, read-out: Minimum Growth Inhibitory Concentration (MIC)
[14] = Table 2, bacterium 2: Staphylococcus aureus 209 PJC1, read-out: Minimum Growth Inhibitory Concentration (MIC)
[15] = GN76, Table 2, bacterium 8: Proteus vulgaris GN 76, read-out: Minimum Growth Inhibitory Concentration (MIC)
[16] = Table 2, bacterium 1: Staphylococcus aureus Smith
[17] = NIHJJC2, Table 2, bacterium 3: Escherichia coli NIHJ JC2, read-out: Minimum Growth Inhibitory Concentration (MIC)
[18] = Table 2, bacterium 10: Serratia marcescens No. 2, read-out: Minimum Growth Inhibitory Concentration (MIC)
[19] = GN206, read-out: Minimum Growth Inhibitory Concentration (MIC)
[20] = GN624, read-out: Minimum Growth Inhibitory Concentration (MIC)
[21] = Proteus mirabilis, GN79, read-out: Minimum Growth Inhibitory Concentration (MIC)
[22] = Serratia marcescens, NO.2, read-out: Minimum Growth Inhibitory Concentration (MIC)
[23] = Klebsiella pneumoniae, PCI602, read-out: Minimum Growth Inhibitory Concentration (MIC)
[24] = Staphylococcus aureus, 209PJC1, read-out: Minimum Growth Inhibitory Concentration (MIC)
[25] = Proteus vulgaris, GN76, read-out: Minimum Growth Inhibitory Concentration (MIC)
[26] = Escherichia coli, NIHJJC2, read-out: Minimum Growth Inhibitory Concentration (MIC)

Row | SMILES | MIC [1] [µg/mL] | MIC (Eshcerichia coli GN 206; [9]) [µg/mL] | MIC (Proteus rettgeri GN624; [10]) [µg/mL] | MIC [2, 11] [µg/mL] | MIC (Proteus mirabilis GN 79; [12]) [µg/mL] | MIC [3, 13] [µg/mL] | MIC [4, 14] [µg/mL] | MIC (Proteus vulgaris GN 76; [15]) [µg/mL] | MIC [5, 16] [µg/mL] | MIC [6, 17] [µg/mL] | MIC [7, 18] [µg/mL] | MIC (Eshcerichia coli GN 206; [19]) [µg/mL] | MIC (Proteus rettgeri GN624; [20]) [µg/mL] | MIC (Proteus mirabilis GN 79; [21]) [µg/mL] | MIC [7, 22] [µg/mL] | MIC [3, 23] [µg/mL] | MIC [4, 24] [µg/mL] | MIC (Proteus vulgaris GN 76; [25]) [µg/mL] | MIC ([5]; Staphylococcus aureus) [µg/mL] | MIC [6, 26] [µg/mL] | also measured
1 | CO/N=C(\C(=O)N[C@@H]1C(=O)N2C(C(=O)[O-])=C(CSc3cc[n+](CC(F)(F)F)cc3)CS[C@H]12)c1csc(N)n1 [Example 80, (6R,7R)-7-[(Z)-2-(2-Aminothiazol-4-yl)-2-methoxyiminoacetamido]-3-[1-(2,2,2-trifluoroethylpyridinium-4-yl)thiomethyl]-ceph-3-em-4-carboxylate] | 0.2 (≈ 0.34 µM) | 0.05 (≈ 0.0849 µM) | 0.2 (≈ 0.34 µM) | 0.2 (≈ 0.34 µM) | 1.56 (≈ 2.65 µM) | 0.2 (≈ 0.34 µM) | 0.2 (≈ 0.34 µM) | 0.78 (≈ 1.33 µM) | 0.2 (≈ 0.34 µM) | 0.2 (≈ 0.34 µM) |  |  |  |  |  |  |  |  |  |  | 
2 | CC(C)(O/N=C(\C(=O)N[C@@H]1C(=O)N2C(C(=O)[O-])=C(CSc3cc[n+](CC(F)(F)F)cc3)CS[C@H]12)c1csc(N)n1)C(=O)O [Example 83, (6R,7R)-7-[(Z)-2-(2-Aminothiazol-4-yl)-2-(carboxyprop-2-oxyimino)acetamido]-3-[1-(2,2,2-trifluoroethylpyridinium-4-yl)thiomethyl]-ceph-3-em-4-carboxylic acid sodium salt] | 0.05 | 0.2 | 0.2 | 0.05 | 0.39 | 0.2 | 3.13 | 0.2 | 6.25 | 0.2 |  |  |  |  |  |  |  |  |  |  | 
3 | CCO/N=C(\C(=O)N[C@@H]1C(=O)N2C(C(=O)[O-])=C(CSc3cc[n+](C(C(=O)O)c4ccccc4)cc3)CS[C@H]12)c1csc(N)n1 (stereo partly drawn) [Example 32, (6R,7R)-7-[(Z)-2-(2-Aminothiazol-4-yl)-2-ethoxyiminoacetamido]-3-[(1-carboxybenzylpyridinium-4-yl)thiomethyl]-ceph-3-em-4-carboxylic acid sodium salt] |  | 0.78 | 0.39 | 0.39 | 3.13 | 0.2 | 1.56 | 0.78 | 1.56 | 0.39 | 0.78 |  |  |  |  |  |  |  |  |  | 
4 | CCO/N=C(\C(=O)N[C@@H]1C(=O)N2C(C(=O)[O-])=C(CSc3cccc[n+]3CC(=O)O)CS[C@H]12)c1csc(N)n1 [Example 33, sodium salt] |  | 0.78 | 6.25 | 0.05 | 0.39 | 0.05 | 0.78 | 0.39 | 1.56 | 0.05 | 0.1 |  |  |  |  |  |  |  |  |  | 
5 | CO/N=C(\C(=O)N[C@@H]1C(=O)N2C(C(=O)O)=C(CSc3cc[n+](CC(=O)O)cc3)CS[C@H]12)c1csc(N)n1.[Na+] |  |  |  |  |  |  |  |  |  |  |  | 0.2 | 0.39 | 0.2 | 0.05 | 0.025 | 0.78 | 0.05 | 1.56 | 1.56 | MIC ([2]; TYPHIMURIUM): 0.025 µg/mL; concentration at 0.5 h ([8]; 1/2 hr): 12500 ng/mL; concentration at 0.25 h ([8]; 1/4 hr): 28000 ng/mL; concentration at 5 min ([8]; 1/12 hr): 20000 ng/mL; concentration at 1 h ([8]; 1 hr): 2200 ng/mL
6 | Nc1nc(/C(=N/OCC(=O)O)C(=O)N[C@@H]2C(=O)N3C(C(=O)[O-])=C(CSc4cc[n+](CC(F)(F)F)cc4)CS[C@H]23)cs1 [Example 82, (6R,7R)-7-[(Z)-2-(2-Aminothiazol-4-yl)-2-(carboxymethoxyimino)acetamido]-3-[1-(2,2,2-trifluoroethylpyridinium-4-yl)thiomethyl]-ceph-3-em-4-carboxylic acid sodium salt] | < 0.025 | 0.05 | < 0.025 |  | 0.05 | ≤ 0.025 | 3.13 | 0.05 | 3.13 | 0.05 |  |  |  |  |  |  |  |  |  |  | MIC ([2]; TYPHIMURIUM): < 0.025 µg/mL
7 | C=CCO/N=C(\C(=O)N[C@@H]1C(=O)N2C(C(=O)O)=C(CSc3cc[n+](CC(=O)O)cc3)CS[C@H]12)c1csc(N)n1.[Na+] [Example 30, (6R,7R)-7-[(Z)-2-(2-Aminothiazol-4-yl)-2-(allyloxyimino)acetamido]-3-[(1-carboxymethylpyridinium-4-yl)thiomethyl]-ceph-3-em-4-carboxylic acid sodium salt] |  |  |  | 0.1 |  |  |  |  |  |  |  | 1.56 | 0.2 | 0.05 | 0.1 | 0.1 | 12.5 | 0.05 | 25 | 25 | 
8 | CO/N=C(\C(=O)N[C@@H]1C(=O)N2C(C(=O)[O-])=C(CSc3cc[n+](CCF)cc3)CS[C@H]12)c1csc(N)n1 [Example 84, (6R,7R)-7-[(Z)-2-(2-Aminothiazol-4-yl)-2-methoxyiminoacetamido]-3-[1-(2-fluoroethylpyridinium-4-yl)thiomethyl]-ceph-3-em-4-carboxylate] | 0.025 (≈ 0.0452 µM) | < 0.025 | 0.1 (≈ 0.181 µM) | 0.05 (≈ 0.0905 µM) | 0.39 (≈ 0.706 µM) | 0.1 (≈ 0.181 µM) | 0.2 (≈ 0.362 µM) | 0.2 (≈ 0.362 µM) | 0.2 (≈ 0.362 µM) | 0.05 (≈ 0.0905 µM) |  |  |  |  |  |  |  |  |  |  | 
9 | Nc1nc(/C(=N/OCC(=O)O)C(=O)N[C@@H]2C(=O)N3C(C(=O)O)=C(CSc4cc[n+](CC(=O)O)cc4)CS[C@H]23)cs1.[Na+] [Example 29, (6R,7R)-7-[(Z)-2-(2-Aminothiazol-4-yl)-2-(carboxymethoxyimino)acetamido]-3-[(1-carboxymethylpyridinium-4-yl)thiomethyl]-ceph-3-em-4-carboxylic acid sodium salt] |  |  |  | 0.2 |  |  |  |  |  |  |  | 0.39 | 3.13 | 0.79 | 0.39 | 0.1 | 0.39 | 0.2 | 0.78 | 0.39 | 
10 | CCO/N=C(\C(=O)N[C@@H]1C(=O)N2C(C(=O)[O-])=C(CSc3cc[n+](C(C)C(=O)O)cc3)CS[C@H]12)c1csc(N)n1 (stereo partly drawn) [Example 31, (6R,7R)-7-[(Z)-2-(2-Aminothiazol-4-yl)-2-ethoxyiminoacetamido]-3-[1-(1-carboxy-1-ethylpyridinium-4-yl)thiomethyl]-ceph-3-em-4-carboxylic acid sodium salt] |  | 0.39 | 0.78 | 0.2 | 0.78 | 0.2 | 3.13 | 1.56 | 3.13 | 6.25 | 0.39 |  |  |  |  |  |  |  |  |  | 
